{"source": "ChEMBL document CHEMBL5380816", "about": "“Inclusion of Nitrofurantoin into the Realm of Cancer Chemotherapy via Biology-Oriented Synthesis and Drug Repurposing” (J Med Chem, 2023)", "key": {"MCF7 [1]": {"tested_on": "MCF7", "assay": "Anticancer activity against human MCF7 cells assessed as round cells incubated at 0.097uM for 72 hrs by phase contrast inverted microscopic analysis", "format": "functional, cell-based"}, "HeLa [2]": {"tested_on": "HeLa", "assay": "Anticancer activity against human HeLa cells assessed as losing contact with neighbouring cells incubated at 0.097uM for 72 hrs by phase contrast inverted microscopic analysis", "format": "functional, cell-based"}, "HepG2 [3]": {"tested_on": "HepG2", "assay": "Induction of apoptosis in human HepG2 cells assessed as viable cells incubated at 0.097 uM for 72 hrs by annexin V-FITC based propidium iodide dual staining assay (reference value: 97.27%)", "format": "functional", "settings": "read-out: Activity"}, "MCF7 [4]": {"tested_on": "MCF7", "assay": "Induction of apoptosis in human MCF7 cells assessed as early apoptotic cells by measuring bright green patch incubated at 0.097 uM for 72 hrs by acridine orange-ethidium bromide dual staining based fluorescence microscopic analysis", "format": "functional, cell-based"}, "HepG2 [5]": {"tested_on": "HepG2", "assay": "Induction of oxidative stress in human HepG2 cells assessed as cell death by measuring redox alteration fluorescence incubated at 0.098 uM for 72 hrs in presence of dihydro dichlorofluorescein diacetate by DCFH-DA based flow cytometric analysis relative to control", "format": "functional"}, "MCF7 [6]": {"tested_on": "MCF7", "assay": "Induction of apoptosis in human MCF7 cells assessed as caspase3/7 activation at 0.097 uM using caspase-glo 3/7 as substrate relative to control", "format": "functional"}, "HeLa [7]": {"tested_on": "HeLa", "assay": "Induction of apoptosis in human HeLa cells assessed as caspase3/7 activation at 0.097 uM using caspase-glo 3/7 as substrate relative to control", "format": "functional"}, "MCF7 [8]": {"tested_on": "MCF7", "assay": "Anticancer activity against human MCF7 cells assessed as smaller cells incubated at 0.11 uM for 72 hrs by phase contrast inverted microscopic analysis", "format": "functional, cell-based"}, "MCF7 [9]": {"tested_on": "MCF7", "assay": "Anticancer activity against human MCF7 cells assessed as cell shrinkage incubated at 0.11 uM for 72 hrs by phase contrast inverted microscopic analysis", "format": "functional, cell-based"}, "MCF7 [10]": {"tested_on": "MCF7", "assay": "Anticancer activity against human MCF7 cells assessed as absence of normal spindle shape incubated at 0.11 uM for 72 hrs by phase contrast inverted microscopic analysis", "format": "functional, cell-based"}, "HeLa [11]": {"tested_on": "HeLa", "assay": "Anticancer activity against human HeLa cells assessed as smaller cells incubated at 0.11 uM for 72 hrs by phase contrast inverted microscopic analysis", "format": "functional, cell-based"}, "HeLa [12]": {"tested_on": "HeLa", "assay": "Anticancer activity against human HeLa cells assessed as cell shrinkage incubated at 0.11 uM for 72 hrs by phase contrast inverted microscopic analysis", "format": "functional, cell-based"}, "MCF7 [13]": {"tested_on": "MCF7", "assay": "Induction of apoptosis in human MCF7 cells assessed as necrotic cells incubated at 0.11 uM for 72 hrs by annexin V-FITC based propidium iodide dual staining assay (reference value: 0.03%)", "format": "functional"}, "HepG2 [14]": {"tested_on": "HepG2", "assay": "Induction of apoptosis in human HepG2 cells assessed as necrotic cells incubated at 0.11 uM for 72 hrs by annexin V-FITC based propidium iodide dual staining assay (reference value: 0.33%)", "format": "functional"}, "MCF7 [15]": {"tested_on": "MCF7", "assay": "Induction of apoptosis in human MCF7 cells assessed as early apoptotic cells by measuring bright green patch incubated at 0.11 uM for 72 hrs by acridine orange-ethidium bromide dual staining based fluorescence microscopic analysis", "format": "functional, cell-based"}, "HeLa [16]": {"tested_on": "HeLa", "assay": "Induction of apoptosis in human HeLa cells assessed as late apoptotic cells by measuring orange to red patch incubated at 0.11 uM for 72 hrs by acridine orange-ethidium bromide dual staining based fluorescence microscopic analysis", "format": "functional, cell-based"}, "dsDNA": {"tested_on": "dsDNA", "assay": "Induction of damage in dsDNA (unknown origin) assessed as disrupted by DNA by measuring decrease in fluorescence intensity at 100 uM by EvaGreen based fluorescence plate reader analysis", "format": "nucleic-acid assay", "settings": "time <= 160.0 min, TDE = time-dependent effect"}, "MCF7 [17]": {"tested_on": "MCF7", "assay": "Induction of DNA damage in human MCF7 cells assessed as increase in p53 expression at 5 uM incubated for 24 hrs by Western blot analysis", "format": "functional, cell-based"}, "Caco-2 [18]": {"tested_on": "Caco-2", "assay": "Induction of apoptosis in human Caco-2 cells assessed as viable cells incubated at 0.017 uM for 72 hrs by annexin V-FITC based propidium iodide dual staining assay (reference value: 99.89%)", "format": "functional", "settings": "read-out: Activity"}, "Caco-2 [19]": {"tested_on": "Caco-2", "assay": "Induction of apoptosis in human Caco-2 cells assessed as late apoptotic cells incubated at 0.017 uM for 72 hrs by annexin V-FITC based propidium iodide dual staining assay (reference value: 0.02%)", "format": "functional"}, "Caco-2 [20]": {"tested_on": "Caco-2", "assay": "Induction of apoptosis in human Caco-2 cells assessed as necrotic cells incubated at 0.017 uM for 72 hrs by annexin V-FITC based propidium iodide dual staining assay (reference value: 0.02%)", "format": "functional"}, "HepG2 [21]": {"tested_on": "HepG2", "assay": "Induction of apoptosis in human HepG2 cells assessed as necrotic cells incubated at 0.017 uM for 72 hrs by annexin V-FITC based propidium iodide dual staining assay (reference value: 0.33%)", "format": "functional"}, "HeLa [22]": {"tested_on": "HeLa", "assay": "Induction of apoptosis in human HeLa cells assessed as total apoptotic cells incubated at 0.017 uM for 72 hrs by annexin V-FITC based propidium iodide dual staining assay (reference value: 0 +/- 0.035%)", "format": "functional"}, "Caco-2 [23]": {"tested_on": "Caco-2", "assay": "Induction of apoptosis in human Caco-2 cells assessed as viable cells by measuring green uniform patch incubated at 0.017 uM for 72 hrs by acridine orange-ethidium bromide dual staining based fluorescence microscopic analysis", "format": "functional, cell-based"}, "HeLa [24]": {"tested_on": "HeLa", "assay": "Induction of apoptosis in human HeLa cells assessed as caspase3/7 activation at 0.017 uM using caspase-glo 3/7 as substrate relative to control", "format": "functional"}, "HepG2 [25]": {"tested_on": "HepG2", "assay": "Induction of apoptosis in human HepG2 cells assessed as caspase3/7 activation at 0.017 uM using caspase-glo 3/7 as substrate relative to control", "format": "functional"}, "Caco-2 [26]": {"tested_on": "Caco-2", "assay": "Anticancer activity against human Caco-2 cells assessed as smaller cells incubated at 0.098uM for 72 hrs by phase contrast inverted microscopic analysis", "format": "functional, cell-based"}, "Caco-2 [27]": {"tested_on": "Caco-2", "assay": "Anticancer activity against human Caco-2 cells assessed as losing contact with neighbouring cells incubated at 0.098uM for 72 hrs by phase contrast inverted microscopic analysis", "format": "functional, cell-based"}, "MCF7 [28]": {"tested_on": "MCF7", "assay": "Anticancer activity against human MCF7 cells assessed as cell shrinkage incubated at 0.098uM for 72 hrs by phase contrast inverted microscopic analysis", "format": "functional, cell-based"}, "MCF7 [29]": {"tested_on": "MCF7", "assay": "Anticancer activity against human MCF7 cells assessed as absence of normal spindle shape incubated at 0.098uM for 72 hrs by phase contrast inverted microscopic analysis", "format": "functional, cell-based"}, "HeLa [30]": {"tested_on": "HeLa", "assay": "Anticancer activity against human HeLa cells assessed as smaller cells incubated at 0.098uM for 72 hrs by phase contrast inverted microscopic analysis", "format": "functional, cell-based"}, "Caco-2 [31]": {"tested_on": "Caco-2", "assay": "Induction of apoptosis in human Caco-2 cells assessed as early apoptotic cells incubated at 0.098 uM for 72 hrs by annexin V-FITC based propidium iodide dual staining assay (reference value: 0.07%)", "format": "functional"}, "HeLa [32]": {"tested_on": "HeLa", "assay": "Induction of apoptosis in human HeLa cells assessed as viable cells incubated at 0.098 uM for 72 hrs by annexin V-FITC based propidium iodide dual staining assay (reference value: 97.23%)", "format": "functional", "settings": "read-out: Activity"}, "HepG2 [33]": {"tested_on": "HepG2", "assay": "Induction of apoptosis in human HepG2 cells assessed as early apoptotic cells incubated at 0.098 uM for 72 hrs by annexin V-FITC based propidium iodide dual staining assay (reference value: 1.74%)", "format": "functional"}, "Caco-2 [34]": {"tested_on": "Caco-2", "assay": "Induction of apoptosis in human Caco-2 cells assessed as early apoptotic cells by measuring bright green patch incubated at 0.098 uM for 72 hrs by acridine orange-ethidium bromide dual staining based fluorescence microscopic analysis", "format": "functional, cell-based"}, "MCF7 [35]": {"tested_on": "MCF7", "assay": "Induction of apoptosis in human MCF7 cells assessed as late apoptotic cells by measuring orange to red patch incubated at 0.098 uM for 72 hrs by acridine orange-ethidium bromide dual staining based fluorescence microscopic analysis", "format": "functional, cell-based"}}, "note": "The source made the active and inactive calls. No cut-off for these calls is given here.", "data": [{"smiles": "NS(=O)(=O)c1ccc(-n2cc(CN3C(=O)CN(/N=C/c4ccc([N+](=O)[O-])o4)C3=O)nn2)cc1", "values": [{"measurement": "Activity", "setting": "MCF7 [1]", "value": "Active"}, {"measurement": "Activity", "setting": "HeLa [2]", "value": "Active"}, {"measurement": "viability at 0.097 µM", "setting": "HepG2 [3]", "value": 78.9, "unit": "%"}, {"measurement": "Activity", "setting": "MCF7 [4]", "value": "Active"}, {"measurement": "Activity", "setting": "HepG2 [5]", "value": 48.51, "unit": "%"}, {"measurement": "Activity", "setting": "MCF7 [6]", "value": 58, "unit": "%"}, {"measurement": "Activity", "setting": "HeLa [7]", "value": 58, "unit": "%"}]}, {"smiles": "C#CCN1C(=O)CN(/N=C/c2ccc([N+](=O)[O-])o2)C1=O", "values": [{"measurement": "Activity", "setting": "MCF7 [8]", "value": "Active"}, {"measurement": "Activity", "setting": "MCF7 [9]", "value": "Active"}, {"measurement": "Activity", "setting": "MCF7 [10]", "value": "Active"}, {"measurement": "Activity", "setting": "HeLa [11]", "value": "Active"}, {"measurement": "Activity", "setting": "HeLa [12]", "value": "Active"}, {"measurement": "Activity", "setting": "MCF7 [13]", "value": 4.01, "unit": "%"}, {"measurement": "Activity", "setting": "HepG2 [14]", "value": 3.66, "unit": "%"}, {"measurement": "Activity", "setting": "MCF7 [15]", "value": "Active"}, {"measurement": "Activity", "setting": "HeLa [16]", "value": "Active"}, {"measurement": "Activity", "setting": "dsDNA", "value": "Tde"}, {"measurement": "Activity", "setting": "MCF7 [17]", "value": "Active"}]}, {"smiles": "O=c1[nH]cc(F)c(=O)[nH]1", "note": "[FLUOROURACIL]", "values": [{"measurement": "viability at 0.017 µM", "setting": "Caco-2 [18]", "value": 89.7, "unit": "%"}, {"measurement": "Activity", "setting": "Caco-2 [19]", "value": 2.71, "unit": "%"}, {"measurement": "Activity", "setting": "Caco-2 [20]", "value": 0.97, "unit": "%"}, {"measurement": "Activity", "setting": "HepG2 [21]", "value": 1.56, "unit": "%"}, {"measurement": "Activity", "setting": "HeLa [22]", "value": 4.29, "unit": "%"}, {"measurement": "Activity", "setting": "Caco-2 [23]", "value": "Active"}, {"measurement": "Activity", "setting": "HeLa [24]", "value": 12, "unit": "%"}, {"measurement": "Activity", "setting": "HepG2 [25]", "value": 12, "unit": "%"}]}, {"smiles": "O=C(CN1C(=O)CN(/N=C/c2ccc([N+](=O)[O-])o2)C1=O)c1ccc(Cl)cc1", "values": [{"measurement": "Activity", "setting": "Caco-2 [26]", "value": "Active"}, {"measurement": "Activity", "setting": "Caco-2 [27]", "value": "Active"}, {"measurement": "Activity", "setting": "MCF7 [28]", "value": "Active"}, {"measurement": "Activity", "setting": "MCF7 [29]", "value": "Active"}, {"measurement": "Activity", "setting": "HeLa [30]", "value": "Active"}, {"measurement": "Activity", "setting": "Caco-2 [31]", "value": 8.53, "unit": "%"}, {"measurement": "viability at 0.098 µM", "setting": "HeLa [32]", "value": 29.8, "unit": "%"}, {"measurement": "Activity", "setting": "HepG2 [33]", "value": 6.31, "unit": "%"}, {"measurement": "Activity", "setting": "Caco-2 [34]", "value": "Active"}, {"measurement": "Activity", "setting": "MCF7 [35]", "value": "Active"}]}]}
